US20230321086A1, “METHODS AND MATERIALS FOR INHIBITING NICOTINAMIDE PHOSPHORIBOSYLTRANSFERASE ACTIVITY” (Universiy of Pittsburgh - Of the Commonwealth System of …, priority 2020, published 2023)

System: A431 cells
Test: Assay for total NADH and NAD+ measurements in cells
Type: cell-based
Parameters: C: change in NAD levels in response to test compound, shown as % of NAD activity in the absence of test compound: concentration or dose not given beside the values
Settings: percent of NAD level of untreated control cells (100 = no change)
Protocol: 2,000 cells/well and, at the same time, test compounds dissolved in media at the desired concentration were added to each well. The treated cells were incubated overnight in C02 incubator. The cells were washed 6 times with PBS with 1 mM CaCl2) and 1 mM MgCl2. In the last wash, 10 μL of PBS with 1 mM CaCl2) and 1 mM MgCl2 per well were left in each well. Immediately thereafter, 10 μL 0.4% dodecyltrimethylammonium bromide (DTAB) in phosphate buffer pH 8.0 as added, and the plates were shaked at 1000 rpm for 5 minutes. 60 μL reaction mix was added, and fluorescence at Ex/Em 530/585 was immediately monitored. A linear increase should be achieved with 8 cycles every 92 seconds, 10 number of flashes/well/cycle. The reaction mix was prepared per the following table, respecting the amount and order in which each component was added:
All assays were performed in A431 cells. Referring to the tables below, activity: “+” ≥25 μM, “++” ≥1 μM and <25 μM, and “+++”<1 μM.
In each table header, A: NAMPT enzyme inhibitory activity, IC50 (μM); B: Cellular NAD inhibitory activity, IC50 (μM); and C: change in NAD levels in response to test compound, shown as % of NAD activity in the absence of test compound. […] A percentage of 100 percent would indicate no increase or decrease in NAD levels as compared to that measured for untreated control cells, while a percentage of 50 percent would indicate a decrease in NAD levels of 50 percent as compared to that measured for untreated control cells.

SMILES	C: change in NAD levels in response to test compound, shown as % of NAD activity in the absence of test compound [%]
CN1CCN(C(=O)c2ccc3nc(-c4ccc(F)cc4)c(-c4ccc(OC(F)(F)F)cc4)nc3c2)CC1 [BC19399]	92
CN1CCN(C(=O)c2cccc3nc(-c4ccc(F)cc4)c(-c4ccc(F)cc4)nc23)CC1 [BC19400]	76
Cn1cc(-c2cnc3nc(-c4ccc(F)cc4)c(-c4ccc(F)cc4)nc3c2)nn1 [BC19401]	55
CCCn1cc(-c2cnc3nc(-c4ccc(F)cc4)c(-c4ccc(F)cc4)nc3c2)nn1 [BC19402]	64
Fc1ccc(-c2nc3cccnc3nc2-c2ccc(F)cc2)cc1 [BC19403]	68
OCCn1ncc(-c2ccc3nc(-c4ccc(F)cc4)c(-c4ccc(F)cc4)nc3c2)n1 [BC19404]	65
CN1CCN(C(=O)c2ccc3nc(-c4ccc(F)cc4F)c(-c4ccccc4)nc3c2)CC1 [BC19405]	69
C#CCNC(=O)c1ccc2nc(-c3ccc(F)cc3F)c(-c3ccccc3)nc2c1 [BC19406]	93
CN1CCN(C(=O)c2cnc3nc(-c4ccc(F)cc4)c(-c4ccc(F)cc4)nc3c2)CC1 [BC19408]	95
CN1CCN(C(=O)c2ccc3nc(-c4ccc(OC(F)(F)F)cc4)c(-c4ccc(OC(F)(F)F)cc4)nc3c2)CC1 [BC19445]	14
CNC(=O)c1ccc2nc(-c3ccc(OC(F)(F)F)cc3)c(-c3ccc(OC(F)(F)F)cc3)nc2c1 [BC19447]	50
Oc1ccc2nc(-c3ccc(F)cc3)c(-c3ccc(F)cc3)nc2n1 [BC19448]	78
CN1CCN(C(=O)c2ccc3nc(-c4ccc(Cl)cc4)c(-c4ccc(Cl)cc4)nc3c2)CC1 [BC19450]	78
C#CCNC(=O)c1ccc2nc(-c3ccc(Cl)cc3)c(-c3ccc(Cl)cc3)nc2c1 [BC19451]	57
O=C(NCCO)c1ccc2nc(-c3ccc(OC(F)(F)F)cc3)c(-c3ccc(OC(F)(F)F)cc3)nc2c1 [BC19453]	88
COCC(=O)N1CCC(C(=O)Nc2ccc3nc(-c4ccc(F)cc4)c(-c4ccc(F)cc4)nc3c2)CC1 [BC19494]	52
Cn1cnnc1-c1cnc2nc(-c3ccc(F)cc3)c(-c3ccc(F)cc3)nc2c1 [BC19496]	95
O=C(NCCN1CCOCC1)c1ccc2nc(-c3ccc(Cl)cc3)c(-c3ccc(Cl)cc3)nc2c1 [BC19497]	49
CN1CCN(C(=O)c2ccc3nc(-c4cccc(N(C)C)c4)c(-c4cccc(N(C)C)c4)nc3c2)CC1 [BC19498]	66
O=C(NCCN1CCOCC1)c1ccc2nc(-c3ccc(OC(F)(F)F)cc3)c(-c3ccc(OC(F)(F)F)cc3)nc2c1 [BC19503]	43
O=S(=O)(NCCN1CCOCC1)c1ccc2nc(-c3ccc(F)cc3)c(-c3ccc(F)cc3)nc2c1 [BC19504]	58
O=S(=O)(NC1CC1)c1ccc2nc(-c3ccc(F)cc3)c(-c3ccc(F)cc3)nc2c1 [BC19505]	30
O=S(=O)(NCC1CC1)c1ccc2nc(-c3ccc(F)cc3)c(-c3ccc(F)cc3)nc2c1 [BC19506]	66
COCCNS(=O)(=O)c1ccc2nc(-c3ccc(F)cc3)c(-c3ccc(F)cc3)nc2c1 [BC19507]	53
O=S(=O)(NCCCN1CCOCC1)c1ccc2nc(-c3ccc(F)cc3)c(-c3ccc(F)cc3)nc2c1 [BC19508]	28
O=S(=O)(NCCCO)c1ccc2nc(-c3ccc(F)cc3)c(-c3ccc(F)cc3)nc2c1 [BC19509]	66

SMILES	C: change in NAD levels in response to test compound, shown as % of NAD activity in the absence of test compound [%]
CN1CCN(c2ccc3nc(-c4ccc(F)cc4)c(-c4ccc(F)cc4)nc3c2)CC1 [BC19510]	41
CC(=O)N1CCN(c2ccc3nc(-c4ccc(F)cc4)c(-c4ccc(F)cc4)nc3c2)CC1 [BC19511]	26
N#Cc1ccc2nc(-c3ccc(F)cc3)c(-c3ccc(F)cc3)nc2n1 [BC19512]	85
O=C(c1ccc2nc(-c3ccc(F)cc3)c(-c3ccc(F)cc3)nc2c1)N1CCN(CCO)CC1 [BC19513]	49
O=C(c1ccc2nc(-c3ccc(F)cc3)c(-c3ccc(F)cc3)nc2c1)N1CCN(CCOCCO)CC1 [BC19514]	73
COCCCNS(=O)(=O)c1ccc2nc(-c3ccc(F)cc3)c(-c3ccc(F)cc3)nc2c1 [BC19554]	52
CN(C)CCNS(=O)(=O)c1ccc2nc(-c3ccc(F)cc3)c(-c3ccc(F)cc3)nc2c1 [BC19555]	1
CCNS(=O)(=O)c1ccc2nc(-c3ccc(F)cc3)c(-c3ccc(F)cc3)nc2c1 [BC19556]	44
O=S(=O)(NCc1cccnc1)c1ccc2nc(-c3ccc(F)cc3)c(-c3ccc(F)cc3)nc2c1 [BC19557]	63
O=S(=O)(NCc1ccccn1)c1ccc2nc(-c3ccc(F)cc3)c(-c3ccc(F)cc3)nc2c1 [BC19559]	42
O=C1CCCN1CCCNS(=O)(=O)c1ccc2nc(-c3ccc(F)cc3)c(-c3ccc(F)cc3)nc2c1 [BC19560]	51
CN1CCN(CCCNS(=O)(=O)c2ccc3nc(-c4ccc(F)cc4)c(-c4ccc(F)cc4)nc3c2)CC1 [BC19561]	24
CN(C)CCCNS(=O)(=O)c1ccc2nc(-c3ccc(F)cc3)c(-c3ccc(F)cc3)nc2c1 [BC19562]	1
CCNC(=O)Nc1ccc2nc(-c3ccc(F)cc3)c(-c3ccc(F)cc3)nc2c1 [BC19563]	90
CN(C)CCNC(=O)Nc1ccc2nc(-c3ccc(F)cc3)c(-c3ccc(F)cc3)nc2c1 [BC19564]	5
COCCNC(=O)Nc1ccc2nc(-c3ccc(F)cc3)c(-c3ccc(F)cc3)nc2c1 [BC19565]	65
O=C(NCCO)Nc1ccc2nc(-c3ccc(F)cc3)c(-c3ccc(F)cc3)nc2c1 [BC19566]	77
O=C(NCCN1CCOCC1)Nc1ccc2nc(-c3ccc(F)cc3)c(-c3ccc(F)cc3)nc2c1 [BC19567]	46
O=C(Nc1ccc2nc(-c3ccc(F)cc3)c(-c3ccc(F)cc3)nc2c1)NC1CC1 [BC19568]	81
O=C(NCC1CC1)Nc1ccc2nc(-c3ccc(F)cc3)c(-c3ccc(F)cc3)nc2c1 [BC19569]	57
O=C(NCc1ccccn1)Nc1ccc2nc(-c3ccc(F)cc3)c(-c3ccc(F)cc3)nc2c1 [BC19570]	29
O=C(NCc1cccnc1)Nc1ccc2nc(-c3ccc(F)cc3)c(-c3ccc(F)cc3)nc2c1 [BC19571]	10
O=C(NCc1ccncc1)Nc1ccc2nc(-c3ccc(F)cc3)c(-c3ccc(F)cc3)nc2c1 [BC19572]	26
CN(C)CCCNC(=O)Nc1ccc2nc(-c3ccc(F)cc3)c(-c3ccc(F)cc3)nc2c1 [BC19573]	11
COCCCNC(=O)Nc1ccc2nc(-c3ccc(F)cc3)c(-c3ccc(F)cc3)nc2c1 [BC19574]	61
O=C(NCCCO)Nc1ccc2nc(-c3ccc(F)cc3)c(-c3ccc(F)cc3)nc2c1 [BC19575]	78
